{
  "source": "patent US8822541B2",
  "about": "“Use of targeted nitroxide agents in mitigating or treating radiation injury” (University of Pittsburgh—Of the Commonwealth System of …, priority 2008, dated 2014)",
  "key": {"[1]": {"test_system": "32D cl 3 cells", "experiment": "Clonogenic radiation survival curves of 32D cl 3 cells (PLDR study)", "type": "cell-based, mouse", "parameters": "key to D0: D0 in Gy, from single-hit multitarget model", "protocol": "(§1) 32D cl 3 cells were resuspended at 1×10^5 cells/mL in 10×100-mm tubes and divided into three groups: radiation only, post-irradiation treatment with 10 μM JP4-039, and post-irradiation treatment with 10 μM TEMPO. Cells were irradiated to doses ranging from 0 to 8 Gy and were plated immediately after irradiation.\nas §1, with “5×10^5” for “1×10^5”, “then incubated in exponentially growing colonies (flasks) for 24, 48 and 72 h in a high-humidity incubator at 37° C. with 95% air/5% CO2.” for “plated immediately after irradiation.”\n32D cl 3 cells were resuspended at 5×10^5 cells/mL in 10×100-mm tubes. Cells were irradiated to doses ranging from 0 to 8 Gy and were then centrifuged at 1500 RPM for 10 minutes and incubated in vertical tubes held tight in pellets with a total of 5×10^5 cells/pellet for 24, 48 and 72 h in a high-humidity incubator at 37° C. with 95% air/5% CO2.\nCells incubated under either logarithmic or PLDR conditions were resuspended at 24, 48 and 72 h after irradiation, and cell viability was assessed using an automated cell viability counter (Beckman Coulter, Fullerton, Calif.). Subsequently, at 24, 48, 72 h, cells in pellets and flasks were resuspended and treated with 10 μM JP4-039, 10 μM TEMPO, or no treatment and were plated in triplicate in semisolid methylcellulose-containing medium at viable cell concentrations ranging from 500-40,000 cells/mL. Cells were incubated in a high-humidity incubator at 37° C. with 95% air/5% CO2 for 7 d and colonies of greater than 50 cells were scored according to published methods (Epperly M W, Gretton J E, Sikora C A, Jefferson M, Bernarding M, Nie S, et al.: Mitochondrial localization of superoxide, dismutase is required for decreasing radiation-induced cellular damage. Radiat Res. 160: 568-578, 2003).\nData from radiation survival curves were analyzed using the linear-quadratic and single-hit, multitarget models (Epperly M, et al., Prevention of late effects of irradiation lung damage by manganese superoxide dismutase gene therapy. Gene Ther. 5: 196-208, 1998). Results are presented as the mean±standard error of the mean from at least three measurements. Student's t test and two-way ANOVA were used to compare means of different groups where appropriate."}, "[2]": {"test_system": "Ercc1−/Δ mice", "details": "parental compound, comparison statement; cited from earlier work"}, "[3]": {"test_system": "32D cl 3 cells", "experiment": "EPR-based analysis of nitroxide distribution and partitioning in subcellular fractions", "type": "cell-based, mouse", "details": "flask or pelleted, 10 μM, 1 h", "protocol": "To determine nitroxide partitioning and distribution in subcellular compartments, electron paramagnetic resonance (EPR) was utilized. 32D cl 3 cells were incubated for 24 h under pelleted or flask growth conditions. After incubation, 150×10^6 cells were resuspended at a concentration of 10×10^6 cells/mL and were treated with 10 μM JP4-039 or 10 μM TEMPO for 1 h (Wipf P, et al., Mitochondrial targeting of selective electron scavengers: synthesis and biological analysis of hemigramicidin-TEMPO conjugates. J Am Chem. Soc. 127: 12460-12461, 2005).\nSubcellular compartments were isolated by differential centrifugation. Cells were centrifuged at 1500 RPM for 10 min and the supernatant (media) was removed. The remaining whole cell pellet was washed with cold PBS, resuspended in 0.3 mL of hypotonic buffer solution, and incubated on ice for 45 min. Cells were then lysed by three rapid freeze-thaw cycles in liquid nitrogen for 30 sec and water at 25° C. for 3 min. Lysed cells were centrifuged at 3000×g for 5 min to isolate nucleus and cellular debris. Supernatant was centrifuged at 12000×g for 45 min to isolate mitochondria from cytoplasm (Wipf P, et al., Mitochondrial targeting of selective electron scavengers: synthesis and biological analysis of hemigramicidin-TEMPO conjugates. J Am Chem. Soc. 127: 12460-12461, 2005).\nEach cellular fraction (media, whole cell pellet, nucleus/cellular debris, mitochondria, and cytoplasm) was mixed with DMSO (1:1 vol/vol) and 2 mM of potassium ferricyanide (K3Fe(CN)6) to convert […] to EPR-detectable radical forms (Behringer W, et al., Antioxidant Tempol enhances hypothermic cerebral preservation during prolonged cardiac arrest in dogs. J Cereb Blood Flow Metab. 22: 105-117, 2002). 70 μL of the homogenate was loaded into Teflon tubing (0.8 mm internal diameter) (Alpha Wire Corp., Elizabeth, N.J.) which was folded in half and placed into an open ESR quartz tube (inner diameter of 3.0 mm). EPR measurements were made in triplicate using a JEOL-RE1X EPR spectrometer (Jeol, Tokyo, Japan) under the following conditions: 334.7 mT center field, 5 mT sweep width, 0.079 mT field modulation, 20 mW microwave power, 0.1 sec time constant, and 2 min scan time at 22.5° C. Utilizing signal magnitude and isolated volumes, amount and concentration of JP4-039 or TEMPO were calculated for each sample."}, "[4]": {"details": "0 hours, 10 μM post-irradiation"}},
  "data": [
    {"smiles": "CC1(C)CCCC(C)(C)N1[O]", "note": "[TEMPO, 2,2,6,6-tetramethylpiperidine-N-oxyl, reference compound]", "values": [
      {"measurement": "D0", "setting": "[1]; [4]", "result": "1.04 ± 0.07"},
      {"measurement": "Ñ", "setting": "[1]; [4]", "result": "8.23±4.35"},
      {"measurement": "radiation mitigation", "setting": "[1]; 48 or 72 h after irradiation", "result": "no statistically significant radiation mitigation"},
      {"measurement": "D0", "setting": "[1]; 24 hours (Flask), 10 μM", "result": "1.26 ± 0.11"},
      {"measurement": "Ñ", "setting": "[1]; 24 hours (Flask), 10 μM", "result": "8.86 ± 6.69"},
      {"measurement": "D0", "setting": "[1]; 24 hours (Pellet), 10 μM", "result": "1.13 ± 0.19"},
      {"measurement": "Ñ", "setting": "[1]; 24 hours (Pellet), 10 μM", "result": "7.59±1.71"},
      {"measurement": "body weight", "setting": "[2]", "result": "cause weight loss"},
      {"measurement": "nitroxide signal in whole cell pellet and subcellular fractions", "setting": "[3]", "result": "below the detectable threshold"}
    ]}
  ]
}
